Literature values as cited in patent US20120237590A1 (priority 2011, published 2012).

Experiments:
[1] = June 2005 to 2008; 27,996 exenatide and 16,276 sidagliptin users
Amyloid β = conditions: mice, 20 mg/kg gavage, 12 weeks

In the case of `N[C@@H](CC(=O)N1CCn2c(nnc2C(F)(F)F)C1)Cc1cc(F)c(F)cc1F` [Sitagliptin], the “users who suffered acute pancreatitis” value [1] is given as 0.12%, the “decrease of amyloid β levels and amyloid plaques” value (Amyloid β) is given as “about 50%” and the “levels of incretin GLP-1 in the brain” value (Amyloid β) is given as “increased”.
